Patent publication US11414677B2, “Methods and compositions for performing continuous directed evolution” (Massachusetts Institute of Technology, priority 2017, dated 2022)
Marks after values point to notes of the source that are not given here.

Experiments:
[1] = tested on: HEK293A cells; assay: Resazurin assay to assess acute toxicity of common tissue culture antibiotics; assay type: cell-based, human; conditions: two-day treatment; for acute toxicity (cell viability by resazurin fluorescence): various concentrations
Procedure: FIGS. 46A-46D. Resazurin assay to assess acute toxicity of common tissue culture antibiotics. HEK293A cells were treated for two days with either G418 (FIG. 46A), puromycin (FIG. 46B), blasticidin (FIG. 46C), or hygromycin (FIG. 46D), and cell viability was analyzed by resazurin fluorescence.
A 96-well plate was seeded with HEK293A cells (˜15,000) and treated with either puromycin HCl (Corning), Hygromycin B (Thermo Fisher), Blasticidin S HCl (Thermo Fisher), or G418 (Enzo). Two days later, 10 μL of 0.1 mg/mL resazurin (MilliporeSigma) was added and incubated for 1.5 h. Media was transferred to a fresh 96-well plate and fluorescence was analyzed on a Bio-Tek Synergy H1 Hybrid Microplate Reader.

[2] = tested on: RFP.ΔAdPol.adenovirus; assay: Time course of antibiotic inhibition of adenoviral replication; assay type: cell-based, Adenovirus type 5; conditions: treatment initiated 24 h post-infection
Source text: FIGS. 47A-47B. Time-course of antibiotic-mediated inhibition of adenoviral infection. HEK293A cells expressing wild-type AdPol were infected with RFP.ΔAdPol.adenovirus and treated with either a) puromycin, or b) blasticidin at various time points post-infection (h.p.i.=hours post-infection). After 2 days, the infections were harvested and titered by flow cytometry. Titers are given in infectious units per milliliter (IU/mL), defined as the volume of adenoviral supernatant required to induce fluorescence in a cell as analyzed by flow cytometry. Dashed line represents the limit of detection (L.O.D) of the assay. Titers below this limit are inaccurate due to the percentage of infected cells being below the 1% error threshold of flow cytometry.
RFP.ΔAdPol.adenovirus (TABLE 16) was used to infect a 24-well plate of wild-type AdPol cells (150,000 cells/well) (TABLE 17) at MOI=1, and either blasticidin or puromycin was added at various time points following the infection. Viral supernatants were harvested ˜48 h post-infection, and titered by flow cytometry as described above.

[3] = tested on: ΔAdPol.adenovirus encoding either tTA or RFP; assay: tTA-induced resistance to antibiotic inhibition of adenoviral replication; assay type: cell-based, Adenovirus type 5; conditions: treatment 10 h post-infection
Procedure: FIGS. 48A-48D. tTA-induced resistance to antibiotic mediated inhibition of adenoviral infection. Either wild-type AdPol cells, TRE3G.puroR cells, or TRE3G.blastR cells were infected with ΔAdPol.adenovirus encoding either tTA (+tTA) or RFP (−tTA). Ten hours post-infection, wild-type AdPol cells were treated with either puromycin (FIG. 48A) or (FIG. 48B) blasticidin, TRE3G.puroR cells were treated with puromycin (FIG. 48C), and TRE3G.blastR cells were treated with blasticidin (FIG. 48D). After 2, days, the infections were harvested and titered by flow cytometry. Titers are given in infectious units per milliliter (IU/mL), defined as the volume of adenoviral supernatant required to induce fluorescence in a cell as analyzed by flow cytometry. Dashed line represents the limit of detection (L.O.D) of the assay. Titers below this limit are inaccurate owing to the percentage of infected cells being below the 1% error threshold of flow cytometry.
Either RFP.ΔAdPol.adenovirus, or tTA.mCherry.ΔAdPol.adenovirus (TABLE 16) was used to infect a 24-well plate of either wild-type AdPol cells, TRE3G.puroR cells, or TRE3G.blastR cells (150,000 cells/well) (TABLE 17) at MOI=1, and either puromycin or blasticidin was added 10 h post-infection. Viral supernatants were harvested ˜48 h post-infection, and titered by flow cytometry as described above.

[4] = tested on: endogenous tTA operator (pLVX-TRE3G.eGFP reporter); assay: Reverse genetics of tTA variants with pLVX-TRE3G.eGFP reporter in HEK293A cells; assay type: cell-based, human; conditions: transient co-transfection with eGFP reporter, presence or absence of 20 μM dox
Source text: FIGS. 22A-22F. FIG. 22A. Serial-passaging schemes for evolving functional tTA variants that gain dox resistance in human cells. Two approaches to selection pressure were used, either with increasing dox concentrations (Trial 1) or a constant, moderate dox concentration (Trial 2). FIG. 22B. tTA-induced GFP expression in the presence of dox after each round of evolution for Trial 1. Phenotyping cells were infected with passaged viral populations and analyzed by flow cytometry. The percentage of infected GFP-positive cells at each passage in the presence of dox was normalized to the percentage of infected GFP-positive cells at each passage in the absence of dox. N.D.=not detectable owing to low viral titer. FIG. 22C. Non-reference allele frequencies for all mutations observed at >1% frequency over the course of the directed evolution experiment for Trial 1 (see FIG. 28 for Trial 2). […]
HEK-293A cells were seeded in a 12-well plate at ˜4×10^5 cells/well. […] 48 h post-transfection, cells were analyzed by flow cytometry (see above for sample preparation). Promoter activity was calculated based on the mean fluorescence intensity of GFP fluorescence, backgated for only mCherry-expressing cells.
HEK-293A cells were seeded in a 12-well plate (˜400,000 cells/well). […] 48 h post-transfection, samples were stained with 0.2 μg/mL DAPI, and analyzed on a BD LSR II analyzer.

[5] = tested on: AdGLΔPol adenoviral genome; assay: Mutagenesis rate determination by serial passaging and deep sequencing of a 6.5 kb fragment; assay type: cell-based, Adenovirus type 5
Procedure: The mutagenic potential of AdPol variants was evaluated following a previously reported protocol (Uil T. G. et al., Nucleic Acids Res. 39, e30 (2011)). Briefly, a polymerase-deleted Ad5, AdGLΔPol, was subjected to 10 serial passages on cultures of 911 cells (Fallaux F. J. et al., Hum. Gene Ther. 7, 215-222 (1996)) expressing EP-Pol in order to accumulate mutations. After 10 serial passages, 911 cells expressing wild-type AdPol were infected in a 6-well plate at ˜50 plaque-forming units/well in order to amplify pools of 50 viral clones for sequencing. Using pools of 50 or fewer clonal viruses ensured that mutations present in only one clone will be present at a frequency above the threshold of detection. From each 50-clone viral pool, a 6.5-kb fragment was amplified and prepared for deep sequencing. Libraries were subjected to 32 cycles of single-read sequencing by an Illumina Genome Analyzer II.
The mutagenic potential of EP-Pol was evaluated following a previously reported protocol (Uil T. G. et al., Nucleic Acids Res., 39(5): e30 (2011)). Briefly, a polymerase-deleted Ad5, AdGLΔAdPol, was subjected to 10 serial passages on cultures of 911 cells expressing EP-Pol in order to accumulate mutations. After 10 serial passages, 911 cells expressing wild-type AdPol were infected in a 6-well plate at ˜50 plaque-forming units/well in order to amplify pools of 50 viral clones for sequencing. Using pools of 50 or fewer clonal viruses ensures that mutations present in only one clone will be present at a frequency above the threshold of detection. From each 50-clone viral pool, a 6.5 kb fragment was amplified and prepared for deep sequencing. Libraries were subjected to 32 cycles of single-read sequencing by an Illumina Genome Analyzer II (GA-II).

CN[C@@H]1[C@@H](O)[C@@H](O[C@@H]2[C@@H](O)[C@H](O[C@H]3O[C@H]([C@@H](C)O)[C@@H](O)[C@H](O)[C@H]3N)[C@@H](N)C[C@H]2N)OC[C@]1(C)O [G418]
acute toxicity (cell viability by resazurin fluorescence) [1]: only mildly toxic at the highest concentrations

COc1ccc(C[C@H](N)C(=O)N[C@H]2[C@@H](O)[C@H](n3cnc4c(N(C)C)ncnc43)O[C@@H]2CO)cc1 [puromycin]
inhibition of adenoviral replication [2]: Neither puromycin nor blasticidin were able to inhibit adenoviral replication
effect on ΔAdPol.adenovirus replication ([3]; TRE3G.puroR cell line): equally toxic to both tTA-expressing and RFP-expressing ΔAdPol.adenovirus
effect on ΔAdPol.adenovirus replication ([3]; wild-type AdPol cell line): inhibited both RFP-expressing and tTA-expressing ΔAdPol.adenovirus replication
dynamic range of inhibitory concentrations [1]: less than two orders of magnitude
acute toxicity (cell viability by resazurin fluorescence) [1]: completely toxic

E147K: tTA variant with single amino acid substitution E147K, fixed in Trial 1
dox-resistance of tTA variant [4]: confer dox-resistance

H100Y: tTA variant with single amino acid substitution H100Y, fixed in Trial 2
dox-resistance of tTA variant [4]: confer dox-resistance

B1: EP-Pol (protein)
chain: MALAQAHRARRLHAEAPDSGDQPPRRRVRQQPTRAAPAPARARRRRAPAPSPGGSGAPPTSGGSPASPLLDASSKDTPAAHRPPRGTVVAPRGCGLLQAIDAATNQPLEIRYHLDLARALTRLCEVNLQELPPDLTPRELQTMDSSHLRDVVIKLRPPRADIWTLGSRGVVVRSTVTPLEQPDGQGQAAEVEDHQPNPPGEGLKFPLCFLVRGRQVNLVQDVQPVHRCQYCARFYKSQHECSARRRDFYFHHINSHSSNWWREIQFFPIGSHPRTERLFVTYDVETYTWMGAFGKQLVPFMLVMKFGGDEPLVTAARDLAANLGWDRWEQDPLTFYCITPEKMAIGRQFRTFRDHLQMLMARDLWSSFVASNPHLADWALSEHGLSSPEELTYEELKKLPSIKGIPRFLELYIVGHNINGYDEIVLAAQVINNRSEVPGPFRITRNFMPRAGKILFNDVTFALPNPRSKKRTDFLLWEQGGCDDTDFKYQYLKVMVRDTFALTHTSLRKAAQAYALPVEKGCCAYQAVNQFYMLGSYRSEADGFPIQEYWKDREEFVLNRELWKKKGQDKYDIIKETLDYCALDVQVTAELVNKLRDSYASFVRDAVGLTDASFNVFQRPTISSNSHAIFRQIVFRAEQPARSNLGPDLLAPSHELYDYVRASIRGGRCYPTYLGILREPLYVYDICGMYASALTHPMPWGPPLNPYERALAARAWQQALDLQGCKIDYFDARLLPGVFTVDADPPDETQLDPLPPFCSRKGGRLCWTNERLRGEVATSVDLVTLHNRGWRVHLVPDERTTVFPEWRCVAREYVQLNIAAKERADRAKNQTLRSIAKLLSNALYGSFATKLDNKKIVFSDQMDAATLKGITAGQVNIKSSSFLETDNLSAEVMPAFQREYSPQQLALADSDAEESEDERAPTPFYSPPSGTPGHVAYTYKPITFLDAEEGDMCLHTLERVDPLVDNDRYPSHLASFVLAWTRAFVSEWSEFLYEEDRGTPLEDRPLKSVYGDTDSLFVTERGHRLMETRGKKRIKKHGGNLVFDPERPELTWLVECETVCGACGADAYSPESVFLAPKLYALKSLHCPSCGASSKGKLRAKGHAAEGLDYDTMVKCYLADAQGEDRQRFSTSRTSLKRTLASAQPGAHPFTVTQTTLTRTLRPWKDMTLARLDEHRLLPYSESRPNPRNEEICWIEMPYPYDVPDYA
modifications: HA tag
Substitution load per million bp ([5]; 6020 bp analyzed, 27.3 clones estimated): 365 per million bp
mutations introduced into the genome ([5]; adenoviral genome ~35 kb): ~1.3 mutations per infected cell pe
Substitutions per Ad genome per viral generation ([5]; assuming a genome size of 36 kb, 27.3 genomes, 10 passages = 10 generations): 1.31**
mutation rate relative to the error rate of wild-type AdPol evaluated by the same method ([5]; comparison with Uil et al. 2011): ~370 fold
mutation rate ([5]; next-generation sequencing of a 6.5 kb region in a small pool of passaged clones): approximately 3.7×10^−5 per base per cell infection cycle
